# “Also recorded” adds a separate entry of the source.
# Key:
# [1] = tested on: 293HGLVP/CrePr cells; assay: RU486-induced CrePr activation of transfected IL-1β^XAT; format: cell-based, human
# Method: Neurobiol Aging 23:977-84] and the expression of IL-1β and lacZ was evaluated following RU486 (10^-7M) administration.
# Mol Ther 8: 790-95]. […] Please refer to FIG. 3 for summary of the experiment.
# [2] = tested on: primary rat endothelial cell cultures; assay: Regulation of inflammation-related genes by IL-1β with or without indomethacin in endothelial cells; format: cell-based
# Method: The effects of IL-1β were evaluated in vitro utilizing primary rat endothelial cell cultures as a representative rodent cell type. In this experiment, murine IL-1β (10 ng/mL) was administered exogenously to cultured primary cells, and subsequently examined the regulation of several inflammation-related genes at the transcript level over the course of 72 hours. These molecules include (A) the inducible isoform of cyclooxygenase (COX-2), intercellular adhesion molecule-1 (ICAM-1) and monocyte chemoattractant protein-1 (MCP-1), as well as (B) the […]. Panel (C) depicts enzyme activity levels of MMP-2 and MMP-9 as evaluated by zymography.
# The regulation of pro-collagen IV was also included in the study as control (not an inflammatory gene)—Panel B.
# Mol Ther 8: 790-95], rat endothelial cells were employed as a representative rodent model to investigate the effects of IL-1β on the regulation of ICAM-1, MCP-1, MMP-2 and MMP-9 at the transcriptional level (mRNA) as well as the enzyme activity level (zymography).
# Non-steroidal anti-inflammatory drugs (NSAIDS) are inhibitors of cyclooxygenase, a rate-limiting enzyme in the production of prostaglandins. Indomethacin, a prototype NSAID often employed in laboratory studies as well as in the hospital setting, has been evaluated for the potential to modulate the inflammatory response elicited by pro-inflammatory cytokines, such as IL-1β. To this end, rodent cells were utilized as a model to study the interaction between IL-1β, and indomethacin in vitro [Kyrkanides S, et al. (2000).
# [3] = tested on: C57BL/6 mice; conditions: morphine intraperitoneal 30 min prior to formalin injection
# [4] = tested on: adult mice; assay: IL-1β injection into the cisterna magna: CGRP and GFAP IHC; format: in vivo, mouse; conditions: 10 ng in 2 μl into cisterna magna
# Method: FIG. 51 whose IL-1β injection into the cisterna magna induces neuronal excitation and astrocyte activation. Recombinant IL-1β was injected into the cisterna magna of adult mice (10 ng in 2 μl of aqueous solution). Neuronal excitation was evaluated by CGRP and astrocyte activation by GFAP IHC. (A) The saline-injected mouse is characterized by lack of CGRP expression at the main sensory nucleus. […] GFAP immunohistochemistry in (C) control and (D) experimental mice.
# [5] = INDO + IL-1β simultaneously vs IL-1β alone (FIG. 7)
# [6] = murine IL-1β 10 ng/mL, over 72 hours (FIG. 6)
# [7] = recombinant IL-1β alone (FIG. 7)
molecule,measurement,setting,value
"CC#C[C@]1(O)CC[C@H]2[C@@H]3CCC4=CC(=O)CCC4=C3[C@@H](c3ccc(N(C)C)cc3)C[C@@]21C [RU486, mifepristone]",IL-1β and lacZ mRNA (RT-PCR),"[1]; RU486 10^-7M, IL-1β^XAT transiently transfected",up-regulation
same,secreted IL-1β protein in supernatant media (ELISA for human IL-1β),[1]; RU486-treated cells,significantly higher levels
same,IL-1β^XAT DNA recombination,[1]; RU486 administration following IL-1β^XAT transfection,DNA excisional recombination
same,number of X-gal positive cells (β-galactosidase reporter),[1]; RU486 in culture media vs naïve cells,significant increase
COc1ccc2c(c1)c(CC(=O)O)c(C)n2C(=O)c1ccc(Cl)cc1 [indomethacin],"ICAM-1, MCP-1 and MMP-9 transcript levels",[2]; [5],further increased
same,collagenase activity of MMP-2 and MMP-9,[2]; [5],further increased
same,expression of inflammatory mediators induced by IL-1β,"[2]; indomethacin with IL-1β, rodent cells in vitro (FIG. 7)",further exacerbated
CN1CC[C@]23c4c5ccc(O)c4O[C@H]2[C@@H](O)C=C[C@H]3[C@H]1C5 [morphine],orofacial grooming in formalin-challenged mice,[3],normalized; also recorded: attenuation of orofacial grooming in formalin-challenged mice to near normal levels
"IL-1β: recombinant IL-1β cytokine administered exogenously to cells or injected into the cisterna magna (protein, UniProt P10749 118-269, looked up) Interleukin-1 beta: VPIRQLHYRLRDEQQKSLVLSDPYELKALHLNGQNINQQVIFSMSFVQGEPSNDKIPVALGLKGKNLYLSCVMKDGTPTLQLESVDPKQYPKKKMEKRFVFNKIEVKSKVEFESAEFPNWYISTSQAEHKPVFLGNNSGQDIIDFTMESVSS",astrocyte activation (GFAP IHC) in brain stem,[4],activation of astrocytes
same,CGRP expression at main sensory nucleus (neuronal excitation),[4]; vs saline,pronounced CGRP immunoreactivity
same,MMP-2 enzyme activity (zymography),[2]; [6],increased with time
same,mRNA levels of MMP-2,[2]; [6],not altered
same,"synthesis of COX-2, MCP-1, ICAM-1 and MMP-9 (mRNA)",[2]; [6],upregulated
same,enzyme activity of MMP-2 and MMP-9 (zymography),[2]; [7],upregulated
same,"transcriptional expression of ICAM-1, MCP-1 and MMP-9 (RT-PCR)",[2]; [7],induced

# From patent US20090217396A1, “Inflammation models in neurodegenerative and arthritic disorders” (priority 2004, published 2009)
